From patent US20150284812A1 (priority 2012, published 2015)
Like-named read-outs stand apart in the source and are kept apart here.

Key:
[1] = test system: gene expression control region of the human CYP3A4 gene (EGFP reporter)
Procedure: (§1) Forty-eight hours later (corresponding to Day 14 of differentiation culture), the total area fluorescence intensities of EGFP and DsRed were analyzed under a fluorescence microscope (FIG. 16).

[2] = test system: gene expression control region of the human CYP3A7 gene (DsRed reporter)
Procedure: as §1

CYP3A7 = experiment: Expression of CYP3A7 upon cell damage, liver damage by a CYP-inducing drug in humanized CYP3A model mouse; assay type: in vivo; conditions: versus corn oil administration control group, hepatocyte regeneration after liver damage
Source text: The expression of CYP3A7 during the injury of hepatocytes was examined by a method of liver regeneration after partial hepatectomy performed on 70% living liver, using a humanized CYP3A model mouse into which human CYP3A4 and CYP3A7 have been incorporated, a method of damaging the liver of the same mouse as described above by administration of a CYP-inducing drug, and a method of transplanting frozen human hepatocytes into the liver injury model mouse. In the method of liver regeneration after the partial hepatectomy, mice that were fed after 70% of the liver had been excised by ligating it with a cord were produced. Thereafter, the mice were successively subjected to dissection from Days 1 to 5 to collect the liver from each mouse, and gene expression was then examined. In the method of damaging the liver by administration of a CYP-inducing drug, the liver was excised from each mouse belonging to a PCN administration group and a corn oil administration control group, and gene expression was then examined. In the method of transplanting frozen human hepatocytes into the living mouse, a part of the humanized mouse liver was obtained from PhenixBio, and gene expression was then examined.

CYP3A7-DsRed [3] = experiment: Liver injury test using CYP3A4+/7R MAC-introduced mice, observation under fluorescence microscope; assay type: in vivo, mouse; conditions: 8 weeks old mice; 5% carbon tetrachloride dissolved in DMSO; observed for 3 days
Source text: The CYP3A4+/7MAC-introduced mice produced in Example 5 strongly expressed DsRed for several weeks after the birth. […] In the CYP3A4+/7R MAC-introduced mice, EGFP functions as a marker showing introduction of MAC in the cells.

CYP3A7-DsRed [4] = experiment: Liver injury test using CYP3A4+/7R MAC-introduced mice, analysis by quantitative RT-PCR; assay type: in vivo, mouse; conditions: adult mice; 5% carbon tetrachloride; Days 1, 2 and 3 versus non-administered (Day 0)
Procedure: Using RNAs extracted from the livers of the CYP3A4+/7R MAC-introduced mice to which 5% carbon tetrachloride had been administered in Test Example 11 and non-administered (Day 0) mice, an increase in the expression of DsRed on Days 1, 2 and 3 after the administration was analyzed by quantitative RT-PCR (FIG. 19).

| SMILES | expression of EGFP (total area fluorescence intensity) [1] | fluorescence intensity of DsRed ([2]; HepaRG clone C3, drug in 1% DMSO, 48 hours, DMSO control group = 1) | expression of CYP3A7 in liver (CYP3A7) | cellular damage to HepaRG cells (HepaRG cells; HepaRG cells) | fluorescence intensity of DsRed in the liver (CYP3A7-DsRed [3]) | expression of DsRed in the liver (quantitative RT-PCR) (CYP3A7-DsRed [4]) | fluorescence intensity of DsRed [2] | cellular damage to HepaRG cells (HepaRG cells) |
| --- | --- | --- | --- | --- | --- | --- | --- | --- |
| CC(=O)[C@H]1[C@H](C#N)C[C@H]2[C@@H]3CC=C4C[C@@H](O)CC[C@]4(C)[C@H]3CC[C@@]21C [PCN, pregnenolone 16α-carbonitrile] | non-inducibility | increase | transiently increased | high cellular damage |  |  |  |  |
| ClC(Cl)(Cl)Cl [carbon tetrachloride] |  |  |  |  | increase | increases |  |  |
| Clc1ccccc1C(c1ccccc1)(c1ccccc1)n1ccnc1 [clotrimazole] | induced |  |  |  |  |  | increase | high cellular damage |
